Consider one compound from PMC7415810, “A novel nucleolin-binding peptide for Cancer Theranostics” (Theranostics, 2020).

SMILES strings stand for the structures.

Data set [1] concerns MDA-MB-231. Kind of data set: Whole-cell binding assay on OBOC peptide beads. The settings on record: peptide on TentaGel beads incubated with cells at 10^6 cells/ml; repeated 3 times. It is filed as cell-based, human. The protocol: (§1) The beads were washed extensively with double-distilled water and phosphate-buffered saline (PBS; Welgene Inc., Korea) before screening. Cancer and normal cells were detached from culture dishes with trypsin/EDTA (Gibco), washed with their corresponding culture medium, resuspended at 10^6 cells/ml, and incubated with OBOC beads in Petri dishes in a humidified CO2 incubator at 37 °C with shaking (60 rpm). Beads bound by cells appeared under a microscope as rosettes in which a central bead was covered by one or more layers of cells. The positive beads were picked with a pipette under an inverted microscope, treated with guanidine-HCL (8 M, 20 min) to remove cells and proteins on the bead surface, and subjected to a second round of screening with normal breast epithelial cells to eliminate false positive binding.
(§2) Note : Semiquantitative relative binding activity: “++++” very strong binding (>40 cells per bead), “+++” strong binding (30
(§3) -20 cells per bead), “+ +” moderate binding (20 - 10 cells per bead), “+” weak binding (5-10 cells per bead), “-” no binding. […]
(§4) Figure S1. A, Steps performed in peptide library synthesis and screening. 1, The split-mix synthesis method was performed to construct the combinatorial OBOC libraries. […]
(§5) sized. 3, OBOC libraries were incubated with cancer cells in a CO2 incubator. 4, Beads carrying ligands with an affinity for cell surface molecules became covered with cells. 5, The positive beads were picked with a pipette under an inverted microscope. 6, The peptide sequences for positive beads were determined by Edman microse - […]
(§6) peptide libraries. B, The binding specificities of the peptides against cancer cell and normal cells were deter- […]
(§7) breast and colorectal cancer cells and normal breast and colorectal cells were re-suspended at 10^6 cells/ml and incubated with beads. All experiments were repeated 3 times. Scale bar, 200 μm.

Data set [2] has as its system MCF-10A. The data set is described as follows: Whole-cell binding assay on OBOC peptide beads. The settings on record: peptide on TentaGel beads incubated with cells at 10^6 cells/ml; repeated 3 times. It is filed as cell-based, human. Also on record: key: ++++: very strong binding (>40 cells per bead); +++: strong binding (30 -20 cells per bead); ++: moderate binding (20 - 10 cells per bead); +: weak binding (5-10 cells per bead); -: no binding. The protocol: as §1, §2, §3, §4, §5, §6, §7

A short description of data set [3]: in vivo. The settings on record: mouse, iv. The protocol: After 15 min of centrifugation at 5,000 rpm and 4 °C, the plasma was obtained and stored at -80 °C. Plasma peptide concentrations were quantified by ELISA, and pharmacokinetic profiles were analyzed using Phoenix WinNonlin 8.1 (Pharsight Corporation, Mountain View, CA, USA). The area under the plasma concentration-time curve (AUC), distribution half-time (T1/2), maximum plasma concentration (Cmax) and time required to reach maximum plasma concentration (Tmax) values were directly determined from the experimental data. […]
bated at 37 °C for 0, 3, 6, 9, and 24 h. The portion of serum-treated peptide remaining was determined by calcu-lating the height of the respective elution peak in analytical-HPLC and comparing it with control without incuba- […]
Plasma peptide concentrations were quantified by ELISA, and pharmacokinetic profiles were analyzed using Phoenix WinNonlin 8.1 (Pharsight Corporation, Mountain View, CA, USA). The data are presented as the means ± standard deviation.

In data set [4] the test system is MCF-10A cells. Kind of data set: cells. The settings on record: read-out: IC50, MCF-10A cells; 48 h treatment, WST-1. As to the method:
(§8) Cancer and normal cells (1 × 10^4 cells/well) were seeded in 96-well plates, incubated for 24 h, and then treated with increasing concentrations of AGM-330, PTX, and AGM-330-PTX for 48 h. Cell viability was assessed by the CellVia WST-1 assay (Young In Frontier) according to the manufacturer's instructions. The numbers of viable cells were measured at a wavelength of 450 nm using a VersaMax ELISA plate reader (Molecular Devices, San Jose, CA, USA).
(§9) Figure S3. A-C, Cancer and normal cells (1 × 10^4 cells/well) were seeded in 96-well plates. After 24 h of incuba-tion, the cells were treated with an increasing concentration of dimeric or tetrameric AGM-330 for 48 h. The viability of cells grown in 0 % FBS (A), 5 % FBS (B) or 10 % FBS (C) was assessed by a CellVia WST-1 assay (Young In Frontier, Seoul, Korea) according to the manufacturer’s instruction. The numbers of viable cells were measured at a wavelength of 450 nm using an VersaMax ELISA plate reader (Molecular Devices). D, E, Binding specificity of AGM-330. A whole-cell binding assay was performed to determine the cell binding of AGM-330 in 1 % FBS (D) or 5 % FBS (E). Scale bar, 200 μm.
A general note: Tetrazolium assays rely on reduction of a dye to a coloured formazan, in cell work by metabolically active cells.

The subject of data set [5] is MDA-MB-231 cells. Kind of data set: cells. The settings on record: read-out: IC50, MDA-MB-231 cells; 48 h treatment, WST-1. The protocol:
as §8, §9

Data set [6] relates to PI3K/Akt phosphorylation in MDA-MB-231 cells. Kind of data set: Immunoblot analysis of PI3K/Akt signaling. The class given is cell-based, human. The settings on record: AGM-330 10, 50, 100 μM, anti-NCL antibody 20, 50 μg/mL. As to the method:
Cells were washed with PBS and lysed on ice for 30 min. Protein extracts were mixed with loading buffer, and boiled at 100 °C for 5 min. A total volume of 50 µl of the denatured protein samples were loaded on 10% gels. A voltage of 80 V was applied to samples and then adjusted to 120 V when protein reached the separation gel. Next, protein was transferred to PVDF membranes for 2 h at 4 °C. PVDF membranes were washed with TBS-T 3 times, and blocked with skim milk for 1 h at room temperature. Primary antibodies were used to detect AKT (1:1000; Abcam), p-AKT (1:1000; Abcam), PI3K (1:1000; Abcam), p-PI3K (1:1000; Abcam). Membranes were treated with primary antibody overnight at 4 °C, washed with TBS-T, and incubated with secondary antibody for 1 h at room temperature. Membranes were washed and developed.
Figure S8. A-D, Western blot analysis of PI3K/Akt signaling in MDA-MB-231 cells stimulated by increasing
concentrations of an anti-NCL antibody and AGM-330. After treatment with the anti-NCL antibody (A,B) or
AGM-330 (C,D), the protein levels of p-PI3K, PI3K, p-Akt and Akt were assessed by immunoblot analysis. The

Turning to `CSCC[C@H](NC(=O)[C@H](C)NC(=O)CNC(=O)[C@H](Cc1c[nH]cn1)NC(=O)[C@@H](N)CCCNC(=N)N)C(=O)N[C@H](C(=O)N[C@@H](Cc1ccc(O)cc1)C(=O)N[C@@H](CC(C)C)C(=O)N[C@@H](CCCCN)C(=O)NCCOCCOCCOCCOCCOCCOCCOCCOCCOCCOCCOCCOCCC(=O)NCCCC[C@H](NC(=O)CCOCCOCCOCCOCCOCCOCCOCCOCCOCCOCCOCCOCCNC(=O)[C@H](CCCCN)NC(=O)[C@H](CC(C)C)NC(=O)[C@H](Cc1ccc(O)cc1)NC(=O)[C@@H](NC(=O)[C@H](CCSC)NC(=O)[C@H](C)NC(=O)CNC(=O)[C@H](Cc1c[nH]cn1)NC(=O)[C@@H](N)CCCNC(=N)N)C(C)C)C(=O)NCCCC[C@H](NC(=O)[C@H](CCCCNC(=O)CCOCCOCCOCCOCCOCCOCCOCCOCCOCCOCCOCCOCCNC(=O)[C@H](CCCCN)NC(=O)[C@H](CC(C)C)NC(=O)[C@H](Cc1ccc(O)cc1)NC(=O)[C@@H](NC(=O)[C@H](CCSC)NC(=O)[C@H](C)NC(=O)CNC(=O)[C@H](Cc1c[nH]cn1)NC(=O)[C@@H](N)CCCNC(=N)N)C(C)C)NC(=O)CCOCCOCCOCCOCCOCCOCCOCCOCCOCCOCCOCCOCCNC(=O)[C@H](CCCCN)NC(=O)[C@H](CC(C)C)NC(=O)[C@H](Cc1ccc(O)cc1)NC(=O)[C@@H](NC(=O)[C@H](CCSC)NC(=O)[C@H](C)NC(=O)CNC(=O)[C@H](Cc1c[nH]cn1)NC(=O)[C@@H](N)CCCNC(=N)N)C(C)C)C(=O)N[C@@H](CS)C(=O)O)C(C)C` [AGM-330], the “Semiquantitative relative binding activity, MDA-MB-231” value in data set [1] was “++++ (very strong binding (>40 cells per bead))”. In data set [2], the “Semiquantitative relative binding activity, MCF-10A” value is “-”. Further, in data set [3], the Cmax (commonly the highest concentration seen after dosing) turned out to be 1880 ± 670 ng/mL, the T1/2 was 566 ± 72.6 min, the Tmax (usually the time at which the peak concentration occurs) was determined as 10 min and the “peptide remaining after 24 h in vivo” value was “more than 25%”. The IC50 (in general, the concentration that inhibits the measured activity by half) in data set [4] was more than 100 µM. Further, the IC50 in data set [5] was more than 100 µM. Also, the “effect on PI3K/Akt phosphorylation” value in data set [6] is reported as “did not suppress”.
